Experimental data published in patent publication US12172972B1, “3-(3-bromophenyl)-5-((2-isopropyl-5-methylphenoxy)methyl)-1,2,4-oxadiazole as an anti-cancer and antimicrobial compound” (KING FAISAL UNIVERSITY, priority 2023, dated 2024).

Tests used:
Format in all cases: cell-based
[1] = tested on: Aspergillus flavus; assay: agar plate disc-diffusion, inhibition zone
Description: (§1) The agar plate disc-diffusion method was applied. […] The discs were then placed onto the surface of agar plates (nutrient agar for bacteria and Sabouraud's dextrose agar for fungi) seeded with the test organism. Each plate contained 15 mL of the agar medium, previously seeded with 0.2 mL of the broth culture of each organism pregrown for 18 hours. The plates were incubated at 37° C. for 48 h, and 72 h for fungi. The inhibition zones were measured in mm. Discs impregnated with DMSO were used as a control, and its inhibition zone was subtracted from the tested compound actual inhibition zone.

[2] = tested on: Bacillus cereus; assay: agar plate disc-diffusion, inhibition zone
Description: as §1

[3] = tested on: Chrysosporium keratinophilum; assay: agar plate disc-diffusion, inhibition zone
Description: as §1

[4] = tested on: Escherichia coli; assay: agar plate disc-diffusion, inhibition zone
Description: as §1

[5] = tested on: Pseudomonas aeruginosa; assay: agar plate disc-diffusion, inhibition zone
Description: as §1

[6] = tested on: Staphylococcus aureus; assay: agar plate disc-diffusion, inhibition zone
Description: as §1

[7] = tested on: different microbes; assay: antimicrobial activity, agar plate disc-diffusion (overall statement); details: against different microbes
Description: The agar plate disc-diffusion method was applied. Sterilized filter papers (6 mm in diameter) were wetted with 10 μL of a solution of 3-(3-bromophenyl)-5-((2-isopropyl-5-methylphenoxy)methyl)-1,2,4-oxadiazole (3) to be tested, containing 10 mg/mL in DMSO, and the discs were allowed to air dry. The discs were then placed onto the surface of agar plates (nutrient agar for bacteria and Sabouraud's dextrose agar for fungi) seeded with the test organism. Each plate contained 15 mL of the agar medium, previously seeded with 0.2 mL of the broth culture of each organism pregrown for 18 hours. The plates were incubated at 37° C. for 48 h, and 72 h for fungi. The inhibition zones were measured in mm. Discs impregnated with DMSO were used as a control, and its inhibition zone was subtracted from the tested compound actual inhibition zone.

[8] = tested on: human osteosarcoma cells (MG-63); assay: cytotoxicity by SRB assay; details: MG-63 cells, 0.01 μM to 100 μM, 72 h
Text: (§2) The anticancer activity of the described synthesized compounds against highly aggressive androgen-independent metastatic human prostate cancer cells (PC3) and osteosarcoma (MG-63) cells. The human prostate cancer cells (PC3) and human osteosarcoma cells (MG-63) were obtained from Nawah Scientific Inc. (Mokatam, Cairo, Egypt) and cultured in DMEM (Dulbecco's modified eagle's medium), Gibco, USA, supplemented with fetal bovine serum (FBS) at a concentration of 10% and 100 U/mL of penicillin and streptomycin (PS). The Cells were incubated at 37° C. in a humidified environment that contained 5% CO2.
(§3) Cells were seeded in 96-well plates as aliquots of 100 μL cell suspension and incubated in a complete media for 24 h, afterward, cells were treated with 3-(3-bromophenyl)-5-((2-isopropyl-5-methylphenoxy)methyl)-1,2,4-oxadiazole at diverse concentrations ranging from 0.01 μM to 100 μM for 72 h. Then, cells were fixed at 4° C. for one hour with 150 μL of 10% trichloroacetic acid (TCA). […] Then, 150 μL of Tris pH 10.5 (10 mM) was added, and the absorbance was measured at 540 nm using a BMG LABTECH®-FLUOstar Omega microplate reader (Ortenberg, Germany). Half maximal inhibitory concentrations (IC50) values were calculated for each experiment using GraphPad Prism 6 software. […]
(§4) The inhibition was calculated using the following equation: Inhibition %=100−Average Viability

[9] = tested on: human prostate cancer cells (PC3); assay: cytotoxicity by SRB assay; details: 0.01 μM to 100 μM, 72 h
Text: as §2, §3, §4

[10] = A = concentration of comp. = 10,000 μL
[11] = C = concentration of comp. = 50,000 μL

Row | Compound | inhibition zone [1, 10] | inhibition zone ([1]; B =) | inhibition zone [1, 11] | inhibition zone [2, 10] | inhibition zone ([2]; B =) | inhibition zone [2, 11] | inhibition zone [3, 10] | inhibition zone ([3]; B = concentration of comp.) | inhibition zone [3, 11] | inhibition zone [4, 10] | inhibition zone ([4]; B =) | inhibition zone [4, 11] | inhibition zone [5, 10] | inhibition zone ([5]; B =) | inhibition zone [5, 11] | inhibition zone [6, 10] | inhibition zone ([6]; B = concentration of comp.) | inhibition zone [6, 11] | also measured
1 | Cc1ccc(C(C)C)c(OCc2nc(-c3cccc(Br)c3)no2)c1 [Compound 3, 3-(3-bromophenyl)-5-((2-isopropyl-5-methylphenoxy)methyl)-1,2,4-oxadiazole] | 20 mm | 24 mm | 32 mm | 27 mm | 29 mm | 40 mm | 25 mm | 28 mm | 47 mm | 28 mm | 36 mm | 52 mm | 26 mm | 28 mm | 40 mm | 12 mm | 16 mm | 19 mm | antimicrobial activities [7]: excellent antimicrobial activities
2 | O=C(O)c1cn(C2CC2)c2cc(N3CCNCC3)c(F)cc2c1=O [Cip., ciprofloxacin, reference compound] | 29 mm | 30 mm | 42 mm | 29 mm | 30 mm | 42 mm | 29 mm | 30 mm | 53 mm | 30 mm | 39 mm | 60 mm | 29 mm | 30 mm | 53 mm | 43 mm | 44 mm | 53 mm | 
3 | Cc1ccc(C(C)C)c(OCc2nc(-c3cccc(Br)c3)no2)c1 [3-(3-bromophenyl)-5-((2-isopropyl-5-methylphenoxy)methyl)-1,2,4-oxadiazole] |  |  |  |  |  |  |  |  |  |  |  |  |  |  |  |  |  |  | antiproliferative activities [8]: excellent antiproliferative activities; antiproliferative activities [9]: excellent antiproliferative activities
